Legend:
Conditions in all cases: human; call rule not given here
[1] = tested on: Hepatotoxicity; assay: FDA HLAED, liver enzyme composite activity
[2] = tested on: Hepatotoxicity; assay: FDA HLAED, alkaline phosphatase increase
[3] = tested on: Hepatotoxicity; assay: FDA HLAED, serum glutamic oxaloacetic transaminase (SGOT) increase
[4] = tested on: Hepatotoxicity; assay: FDA HLAED, serum glutamic pyruvic transaminase (SGPT) increase
[5] = tested on: Hepatotoxicity; assay: FDA HLAED, lactate dehydrogenase (LDH) increase
[6] = tested on: Hepatotoxicity; assay: FDA HLAED, gamma-glutamyl transferase (GGT) increase

Question: For O=P1(N(CCCl)CCCl)NCCCO1 (stereo unspecified) [CYCLOPHOSPHAMIDE ANHYDROUS], which “Composite Activity - Active” value ([1]; Liver) is on record?
Answer: 4

Question: What about the “Composite Activity - Marginal” value ([1]; Liver) of the same compound?
Answer: 0

Question: And the “Composite Activity - Score” value ([1]; Liver)?
Answer: Active

Question: What about the “Alkaline Phosphatase Increase - Activity Score” value [2] of the same compound?
Answer: Active

Question: And the “Alkaline Phosphatase Increase - Index Value” [2]?
Answer: 4.6

Question: And the “Alkaline Phosphatase Increase - Number of Reports” value [2]?
Answer: >= 4

Question: What about the “SGOT Increase - Activity Score” value [3] of the same compound?
Answer: Active

Question: And the “SGOT Increase - Index Value” [3]?
Answer: 8.5

Question: What about the “SGOT Increase - Number of Reports” value [3] of the same compound?
Answer: >= 4

Question: What about the “SGPT Increase - Activity Score” value [4] of the same compound?
Answer: Active

Question: And the “SGPT Increase - Index Value” [4]?
Answer: 8.5

Question: What about the “SGPT Increase - Number of Reports” value [4] of the same compound?
Answer: >= 4

Question: And the “LDH Increase - Activity Score” value [5]?
Answer: Active

Question: What about the “LDH Increase - Index Value” [5] of the same compound?
Answer: 8.5

Question: And the “LDH Increase - Number of Reports” value [5]?
Answer: >= 4

Question: For O=c1[nH]cc(F)c(=O)[nH]1 [FLUOROURACIL], which “Composite Activity - Active” value [1] is on record?
Answer: 1

Question: What about the “Composite Activity - Marginal” value [1] of the same compound?
Answer: 1

Question: And the “Alkaline Phosphatase Increase - Activity Score” value [2]?
Answer: Active

Question: And the “Alkaline Phosphatase Increase - Index Value” [2]?
Answer: 5.5

Question: And the “Alkaline Phosphatase Increase - Number of Reports” value [2]?
Answer: >= 4

Question: And the “LDH Increase - Activity Score” value [5]?
Answer: Marginally Active

Question: And the “LDH Increase - Index Value” [5]?
Answer: 3.6

Question: What about the “LDH Increase - Number of Reports” value [5] of the same compound?
Answer: >= 4

Question: With COC1=CC(=O)C[C@@H](C)[C@]12Oc1c(Cl)c(OC)cc(OC)c1C2=O [GRISEOFULVIN] as the compound, how does the “Composite Activity - Active” value [1] read?
Answer: 4

Question: What about the “Composite Activity - Marginal” value [1] of the same compound?
Answer: 0

Question: What about the “Composite Activity - Score” value [1] of the same compound?
Answer: Active

Question: And the “Alkaline Phosphatase Increase - Activity Score” value [2]?
Answer: Active

Question: What about the “Alkaline Phosphatase Increase - Index Value” [2] of the same compound?
Answer: 5.5

Question: What about the “Alkaline Phosphatase Increase - Number of Reports” value [2] of the same compound?
Answer: >= 4

Question: And the “SGOT Increase - Activity Score” value [3]?
Answer: Active

Question: And the “SGOT Increase - Index Value” [3]?
Answer: 5.5

Question: What about the “SGOT Increase - Number of Reports” value [3] of the same compound?
Answer: >= 4

Question: What about the “SGPT Increase - Activity Score” value [4] of the same compound?
Answer: Active

Question: And the “SGPT Increase - Index Value” [4]?
Answer: 6.9

Question: What about the “SGPT Increase - Number of Reports” value [4] of the same compound?
Answer: >= 4

Question: And the “GGT Increase - Activity Score” value [6]?
Answer: Active

Question: What about the “GGT Increase - Index Value” [6] of the same compound?
Answer: 5.5

Question: What about the “GGT Increase - Number of Reports” value [6] of the same compound?
Answer: < 4

Question: For CN(Cc1cnc2nc(N)nc(N)c2n1)c1ccc(C(=O)N[C@@H](CCC(=O)O)C(=O)O)cc1 [METHOTREXATE], which “Composite Activity - Active” value [1] is on record?
Answer: 2

Question: And the “Composite Activity - Marginal” value [1]?
Answer: 1

Question: And the “Composite Activity - Score” value [1]?
Answer: Active

Question: What about the “SGOT Increase - Activity Score” value [3] of the same compound?
Answer: Active

Question: What about the “SGOT Increase - Index Value” [3] of the same compound?
Answer: 5.3

Question: And the “SGOT Increase - Number of Reports” value [3]?
Answer: >= 4

Question: What about the “SGPT Increase - Activity Score” value [4] of the same compound?
Answer: Active

Question: And the “SGPT Increase - Index Value” [4]?
Answer: 6.4

Question: What about the “SGPT Increase - Number of Reports” value [4] of the same compound?
Answer: >= 4

Question: And the “LDH Increase - Activity Score” value [5]?
Answer: Marginally Active

Question: What about the “LDH Increase - Index Value” [5] of the same compound?
Answer: 3.5

Question: What about the “LDH Increase - Number of Reports” value [5] of the same compound?
Answer: >= 4

Question: Which “Composite Activity - Active” value [1] does the source give for NC1=NC(=O)C(c2ccccc2)O1 (stereo unspecified) [PEMOLINE] here?
Answer: 4

Question: And the “Composite Activity - Marginal” value [1]?
Answer: 0

Question: And the “Composite Activity - Score” value [1]?
Answer: Active

Question: What about the “Alkaline Phosphatase Increase - Activity Score” value [2] of the same compound?
Answer: Active

Question: What about the “Alkaline Phosphatase Increase - Index Value” [2] of the same compound?
Answer: 14

Question: And the “Alkaline Phosphatase Increase - Number of Reports” value [2]?
Answer: >= 4

Question: What about the “SGOT Increase - Activity Score” value [3] of the same compound?
Answer: Active

Question: What about the “SGOT Increase - Index Value” [3] of the same compound?
Answer: 22.7

Question: And the “SGOT Increase - Number of Reports” value [3]?
Answer: >= 4

Question: What about the “SGPT Increase - Activity Score” value [4] of the same compound?
Answer: Active

Question: And the “SGPT Increase - Index Value” [4]?
Answer: 23.5

Question: And the “SGPT Increase - Number of Reports” value [4]?
Answer: >= 4

Question: What about the “LDH Increase - Activity Score” value [5] of the same compound?
Answer: Active

Question: What about the “LDH Increase - Index Value” [5] of the same compound?
Answer: 6.2

Question: And the “LDH Increase - Number of Reports” value [5]?
Answer: >= 4

Question: With NC(=O)c1ncn([C@@H]2O[C@H](CO)[C@@H](O)[C@H]2O)n1 [RIBAVIRIN] as the compound, how does the “Composite Activity - Active” value [1] read?
Answer: 0

Question: And the “Composite Activity - Marginal” value [1]?
Answer: 0

Question: What about the “Composite Activity - Score” value [1] of the same compound?
Answer: Inactive

Question: What about the “Alkaline Phosphatase Increase - Activity Score” value [2] of the same compound?
Answer: Inactive

Question: What about the “Alkaline Phosphatase Increase - Number of Reports” value [2] of the same compound?
Answer: < 4

Question: What about the “SGOT Increase - Activity Score” value [3] of the same compound?
Answer: Inactive

Question: And the “SGOT Increase - Number of Reports” value [3]?
Answer: < 4

Question: What about the “SGPT Increase - Activity Score” value [4] of the same compound?
Answer: Inactive

Question: What about the “SGPT Increase - Number of Reports” value [4] of the same compound?
Answer: < 4

Question: What about the “GGT Increase - Activity Score” value [6] of the same compound?
Answer: Inactive

Question: What about the “GGT Increase - Number of Reports” value [6] of the same compound?
Answer: < 4

Question: Which “Composite Activity - Active” value [1] does the source give for CO[C@H]1/C=C/O[C@@]2(C)Oc3c(C)c(O)c4c(O)c(c(/C=N/N5CCN(C)CC5)c(O)c4c3C2=O)NC(=O)/C(C)=C\C=C\[C@H](C)[C@H](O)[C@@H](C)[C@@H](O)[C@@H](C)[C@H](OC(C)=O)[C@@H]1C [RIFAMPIN] here?
Answer: 1

Question: And the “Composite Activity - Marginal” value [1]?
Answer: 3

Question: What about the “Composite Activity - Score” value [1] of the same compound?
Answer: Marginally Active

Question: And the “Alkaline Phosphatase Increase - Activity Score” value [2]?
Answer: Marginally Active

Question: And the “Alkaline Phosphatase Increase - Index Value” [2]?
Answer: No Shipping Units

Question: And the “Alkaline Phosphatase Increase - Number of Reports” value [2]?
Answer: >= 4

Question: What about the “SGOT Increase - Activity Score” value [3] of the same compound?
Answer: Active

Question: And the “SGOT Increase - Index Value” [3]?
Answer: No Shipping Units

Question: What about the “SGOT Increase - Number of Reports” value [3] of the same compound?
Answer: >= 4

Question: And the “SGPT Increase - Activity Score” value [4]?
Answer: Marginally Active

Question: What about the “SGPT Increase - Index Value” [4] of the same compound?
Answer: No Shipping Units

Question: And the “SGPT Increase - Number of Reports” value [4]?
Answer: >= 4

Question: What about the “LDH Increase - Activity Score” value [5] of the same compound?
Answer: Marginally Active

Question: What about the “LDH Increase - Index Value” [5] of the same compound?
Answer: No Shipping Units

Question: What about the “LDH Increase - Number of Reports” value [5] of the same compound?
Answer: >= 4

Question: With CC(C)c1nc(CN(C)C(=O)N[C@H](C(=O)N[C@@H](Cc2ccccc2)C[C@H](O)[C@H](Cc2ccccc2)NC(=O)OCc2cncs2)C(C)C)cs1 [RITONAVIR] as the compound, how does the “Alkaline Phosphatase Increase - Number of Reports” value [2] read?
Answer: >= 4

Question: And the “SGOT Increase - Number of Reports” value [3]?
Answer: >= 4

Question: What about the “SGPT Increase - Number of Reports” value [4] of the same compound?
Answer: >= 4

Question: What about the “LDH Increase - Number of Reports” value [5] of the same compound?
Answer: >= 4

Question: What about the “GGT Increase - Number of Reports” value [6] of the same compound?
Answer: >= 4

Reference: ChEMBL document CHEMBL1697781, “Assessment of the health effects of chemicals in humans: II. Construction of an adverse effects database for QSAR modeling” (Curr Drug Discov Technol, 2004)
